Data taken from patent US20220047616A1, “Method and Compositions for Treating HTLV-1 Virus Infection” (priority 2019, published 2022).

Experiments:
Ebolavirus (EBOV/Kik) = assay type: cell-based; conditions: compositions added to cells, then virus, 1 hr; FIGS. 1-2
HTLV-1 [1] = assay: Infectivity of HTLV-1 particles from treated SLB1 cells on primary huPBMCs (p19Gag ELISA); assay type: cell-based; conditions: lowest concentration 10 μg/ml, relative to vehicle control
HTLV-1 [2] = assay: HTLV-1 transmission in SLB1/huPBMC co-culture (p19Gag ELISA); assay type: cell-based; conditions: SLB1 pre-treated 15 min or 3 hrs, co-culture 72 hrs
HTLV-1 [3] = assay: HTLV-1 replication and release of p19Gag-containing particles from SLB1 cells (Anti-HTLV-1 p19Gag ELISA); assay type: cell-based; conditions: SLB1 cells, 10, 50, 100 μg/ml, 72 hrs
ZIKV (PLCal_ZV strain) = assay: Protection of ZIKV-induced cytopathic effect (CPE) with Neutral Red readout; assay type: cell-based, Zikavirus; conditions: CPE-based assay, Vero cells, 6 days
Description: (§1) A CPE-based antiviral assay was performed by infecting target cells in the presence or absence of test compositions, at a range of concentrations. […] cytopathic effects and cell death. […] For CPE-based assays, cell viability was determined with a neutral red readout. Viable cells incorporate neutral red in their lysosomes. Uptake of neutral red relies on the ability of live cells to maintain a lower pH inside their lysosomes than in the cytoplasm, and this active process requires ATP. Once inside the lysosome, the neutral red dye becomes charged and is retained intracellularly. […] The amount of neutral red in solution was quantified by reading the absorbance (optical density) of each well at 490 nm […]
(§2) Cytotoxic effects were evaluated in uninfected cells by comparing viability in the presence of inhibitors to the viability of mock-treated cells. Cytotoxicity was determined by an XTT viability assay, which was conducted at the same timepoint as the readout for the corresponding infection assay.
(§3) Test compositions were dissolved in 100% methanol. […] When possible, the EC50 and CC50 of the composition was determined for each assay using GraphPad Prism software. […]
Protection of ZIKV-induced cytopathic effect (CPE) with Neutral Red readout: For the ZIKV antiviral assay, the PLCal_ZV strain was used. […]

HIV-1 [4] = conditions: reported; cited from earlier work
Marburgvirus (MARV/Ci67) = assay type: cell-based; conditions: compositions added to cells, then virus, 1 hr; FIGS. 3-4
HIV-1 [5] = conditions: cited from earlier work
HTLV-1 [6] = assay: Virological synapse formation and HTLV-1 transmission in co-culture (fluorescence microscopy, gp21-positive huPBMCs); assay type: cell-based; conditions: SLB1/pLenti-GFP pre-treated 3 hrs, 10, 50, 100 μg/ml
[7] = system: HTLV-1+ SLB1 lymphoma T-cell-line; assay: Cytotoxicity/apoptosis in HTLV-1+ SLB1 lymphoma T-cells (Annexin V-FITC/PI); conditions: 72 hrs
rhinovirus = assay: Antiviral activity against rhinovirus infection; conditions: concentrations and assays employed herein
[8] = system: DENV2 (08-10381 Montserrat strain); assay: Protection of DENV2-induced cytopathic effect (CPE) with Neutral Red readout; assay type: cell-based, Dengue virus; conditions: CPE-based assay, Vero cells, 7 days
Description: as §1, §2, §3
Protection of DENV2-induced cytopathic effect (CPE) with Neutral Red readout: For the DENV2 antiviral assay, the 08-10381 Montserrat strain was used. […]

HSV-2 = conditions: reported; cited from earlier work
HCV H strain NS5B = HCV H strain NS5B (Hepatitis C virus genotype 1a, UniProt P27958); conditions: reported; cited from earlier work
HCV H strain NS5B, sequence (P27958 2421-3011): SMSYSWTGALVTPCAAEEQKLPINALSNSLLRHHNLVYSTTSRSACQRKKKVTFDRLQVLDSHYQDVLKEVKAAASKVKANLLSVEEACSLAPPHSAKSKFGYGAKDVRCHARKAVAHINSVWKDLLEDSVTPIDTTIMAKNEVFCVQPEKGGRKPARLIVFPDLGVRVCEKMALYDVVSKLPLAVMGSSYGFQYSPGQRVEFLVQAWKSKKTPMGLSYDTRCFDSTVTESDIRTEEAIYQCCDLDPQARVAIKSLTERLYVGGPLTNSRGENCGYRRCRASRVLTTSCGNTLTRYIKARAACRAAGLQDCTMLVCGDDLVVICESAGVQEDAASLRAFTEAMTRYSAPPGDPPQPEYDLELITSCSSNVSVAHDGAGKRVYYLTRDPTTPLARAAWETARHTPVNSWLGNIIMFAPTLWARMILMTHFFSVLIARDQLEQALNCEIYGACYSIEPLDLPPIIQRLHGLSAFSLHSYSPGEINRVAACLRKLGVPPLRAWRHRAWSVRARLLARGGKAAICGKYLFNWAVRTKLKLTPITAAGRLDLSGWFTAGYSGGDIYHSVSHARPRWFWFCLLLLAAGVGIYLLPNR

ENTV EV71 = conditions: reported; cited from earlier work
HEP B = conditions: reported; cited from earlier work
ADV-3 = conditions: reported; cited from earlier work
ADV-11 = conditions: reported; cited from earlier work
HSV-1 = conditions: reported; cited from earlier work
HEP C = conditions: reported; cited from earlier work
ADV-8 = conditions: reported; cited from earlier work
ENTV CVB1 = conditions: reported; cited from earlier work
Dengue virus = conditions: Cheung et al. 2014; cited from earlier work

CO[C@H]1C[C@H](O[C@H]2CC[C@@]3(C)[C@H](CC[C@@H]4[C@@H]3CC[C@]3(C)[C@@H](C5=CC(=O)OC5)[C@@H](OC(C)=O)C[C@]43O)C2)O[C@@H](C)[C@@H]1O [oleandrin]
efficacy against Ebolavirus (dose response, based on oleandrin content) (Ebolavirus (EBOV/Kik)): efficacious | cellular viability of Vero E6 cells (Vero E6 cells): did not reduce cellular viability | infectivity of newly-synthesized p19Gag-containing virus particles on huPBMCs (HTLV-1 [1]): inhibited the infectivity | transmission of HTLV-1 in co-culture (extracellular p19Gag) (HTLV-1 [2]): inhibited the transmission of HTLV-1 as compared to the vehicle control | HTLV-1 replication / release of p19Gag-containing virus particles (HTLV-1 [3]): does not significantly inhibit | efficacy against Zikavirus (ZIKV (PLCal_ZV strain)): demonstrates efficacy | anti-viral activity against HIV-1 (HIV-1 [4]): demonstrated anti-HIV activity | efficacy against Marburgvirus (dose response, based on oleandrin content) (Marburgvirus (MARV/Ci67)): efficacious | HIV-1 viral infectivity in vitro (HIV-1 [5]): inhibit viral infectivity in vitro | incorporation of gp120 envelope glycoprotein of HIV-1 into mature virus particles (HIV-1 [5]): prevent the incorporation | formation of virological synapses and transmission of HTLV-1 (HTLV-1 [6]): inhibited the formation of virological synapses and the transmission of HTLV-1 in vitro | cytotoxicity/apoptosis in SLB1 cells at the lowest concentration ([7]; 10 μg/ml): did not induce significant cytotoxicity/apoptosis | cytotoxicity in SLB1 cells compared with Vehicle control [7]: not significantly higher than the Vehicle control | activity against rhinovirus (viral replication) (rhinovirus): inactive | efficacy against Dengue virus [8]: demonstrates efficacy

C[C@H]1[C@H](C)CC[C@]2(C(=O)O)CC[C@]3(C)C(=CC[C@@H]4[C@@]5(C)CC[C@H](O)C(C)(C)[C@@H]5CC[C@]43C)[C@H]12 [Ursolic acid, ursolic acid]
anti-viral activity against HSV-2 (HSV-2): some anti-viral activity | anti-viral activity against HCV H strain NS5B (HCV H strain NS5B): some anti-viral activity | anti-viral activity against ENTV EV71 (ENTV EV71): some anti-viral activity | anti-viral activity against HEP B (HEP B): some anti-viral activity | anti-viral activity against ADV-3 (ADV-3): some anti-viral activity | anti-viral activity against ADV-11 (ADV-11): some anti-viral activity | anti-viral activity against HSV-1 (HSV-1): some anti-viral activity | anti-viral activity against HEP C (HEP C): some anti-viral activity | anti-viral activity against ADV-8 (ADV-8): some anti-viral activity | anti-viral activity against HIV-1 (HIV-1 [4]): some anti-viral activity | anti-viral activity against ENTV CVB1 (ENTV CVB1): some anti-viral activity

CC(=O)O[C@H]1C[C@H](O[C@H]2[C@@H](O)C[C@H](O[C@H]3[C@@H](O)C[C@H](O[C@H]4CC[C@@]5(C)[C@H](CC[C@@H]6[C@@H]5C[C@@H](O)[C@]5(C)[C@@H](C7=CC(=O)OC7)CC[C@]65O)C4)O[C@@H]3C)O[C@@H]2C)O[C@H](C)[C@H]1O[C@@H]1O[C@H](CO)[C@@H](O)[C@H](O)[C@H]1O [lanatoside C]
antiviral activity against Dengue virus (Dengue virus): demonstrates antiviral activity

CC1(C)CC[C@]2(C(=O)O)CC[C@]3(C)C(=CC[C@@H]4[C@@]5(C)CC[C@H](O)C(C)(C)[C@@H]5CC[C@]43C)[C@@H]2C1 [Oleanolic acid, oleanolic acid]
anti-viral activity against HCV H strain NS5B (HCV H strain NS5B): some anti-viral activity | anti-viral activity against HEP C (HEP C): some anti-viral activity | anti-viral activity against HIV-1 (HIV-1 [4]): some anti-viral activity

C[C@H]1O[C@@H](O[C@H]2[C@@H](O)C[C@H](O[C@H]3[C@@H](O)C[C@H](O[C@H]4CC[C@@]5(C)[C@H](CC[C@@H]6[C@@H]5C[C@@H](O)[C@]5(C)[C@@H](C7=CC(=O)OC7)CC[C@]65O)C4)O[C@@H]3C)O[C@@H]2C)C[C@H](O)[C@@H]1O [digoxin, reference compound]
cellular viability of Vero E6 cells (Vero E6 cells): did not reduce cellular viability
